Reference: PMC7587931, “Affinity of Antifungal Isoxazolo[3,4-b]pyridine-3(1H)-Ones to Phospholipids in Immobilized Artificial Membrane (IAM) Chromatography” (Molecules, 2020)

Assay: not given
Design: method as in PMID 31779124
Conditions: RP-LC, determined previously; cited from earlier work

Compound	logkw
O=c1onc2[nH]c3ccccc3cc1-2 [Compound 1]	2.36
O=c1on(Cc2ccccc2)c2nc3ccccc3cc12 [Compound 2]	3.98
Cn1oc(=O)c2cc3ccccc3nc21 [Compound 3]	2.87
CC(=O)n1oc(=O)c2cc3ccccc3nc21 [Compound 4]	2.79
O=C(c1ccccc1)n1oc(=O)c2cc3ccccc3nc21 [Compound 5]	3.76
Cc1cc(C)c2c(=O)on(Cc3ccccc3)c2n1 [Compound 6]	3.68
CC(=O)n1oc(=O)c2c(C)cc(C)nc21 [Compound 7]	2.53
CCn1oc(=O)c2c(C)cc(C)nc21 [Compound 8]	2.90
Cc1cc(C)c2c(=O)on(C(=O)c3ccccc3)c2n1 [Compound 9]	2.77
Cc1cc(C)c2c(=O)on(C)c2n1 [Compound 10]	2.58
COc1cc(Cn2oc(=O)c3c(C)cc(C)nc32)cc(OC)c1 [Compound 11]	3.83
CCCCn1oc(=O)c2c(C)cc(C)nc21 [Compound 13]	3.69
Cc1cc(C)c2c(=O)o[nH]c2n1 [Compound 14]	2.07
CCCn1oc(=O)c2c(C)cc(C)nc21 [Compound 15]	3.28
C#CCn1oc(=O)c2c(C)cc(C)nc21 [Compound 16]	2.81
Cc1cc(C)c2c(=O)on(C(=O)c3ccc(F)cc3)c2n1 [Compound 17]	3.70
COc1cc(Cn2oc(=O)c3c(C)cc(C)nc32)cc(OC)c1OC [Compound 18]	3.67
COc1ccc2nc3c(cc2c1)c(=O)on3C [Compound 19]	3.14
Cn1oc(=O)c2cc3cc(F)ccc3nc21 [Compound 20]	2.97
Cn1oc(=O)c2cc3cc(Cl)ccc3nc21 [Compound 21]	3.33
Cc1cc2cc3c(=O)on(C)c3nc2cc1C [Compound 22]	3.50
Cc1ccc2cc3c(=O)on(C)c3nc2c1 [Compound 24]	3.21
COc1ccc(OC)c2nc3c(cc12)c(=O)on3C [Compound 25]	3.23
Cc1ccc2nc3c(cc2c1)c(=O)on3C [Compound 26]	3.24

Assay: IAM-HPLC affinity to phospholipids (CHIIAM, gradient elution)
Assay type: physicochemical
Conditions: IAM.PC.DD2 column, gradient 0-85% acetonitrile, 10 mM phosphoric buffer pH 7.4, 30.0 °C
Experimental: Thus, the CHI/CHIIAM values range from 0 to 100, corresponding to the concentration of acetonitrile in the mobile phase and reflecting the nature of the target compound: low and high values correspond to hydrophilic and lipophilic molecules, respectively.
All the HPLC experiments were carried out using a Prominence-1 LC-2030C 3D HPLC system (Shimadzu, Japan) equipped with a Diode-Array Detection (DAD) detector and an IAM.PC.DD2 column (10 × 4.6 mm; particle size 10.0 µm with an IAM guard column; Regis Technologies, Morton Grove, IL, USA). The LabSolution system (version 5.90, Shimadzu, Japan) was applied to control the HPLC system and for data collection. Before analysis, stock solutions of solutes were diluted to obtain concentrations of 100 μg/mL; the injected volume was 5 μL. The IAM-HPLC analyses were carried with a linear gradient of 0–85% phase B (where phase A was a 10 mM phosphoric buffer at pH 7.4 and phase B was acetonitrile) at a flow rate of 1.5 mL/min. The temperature of the chromatographic column was controlled and set to 30.0 °C and the analysis time was 6.5 min. The CHIIAM indices of the studied compounds were obtained using a calibration set of reference substances using the protocol proposed by Valko et al. [33]. Each HPLC analysis was run in triplicate.

Compound	CHIIAM
Cc1cc(C)c2c(=O)on(C(=O)c3ccccc3)c2n1 [Compound 9]	29.99
Cc1cc(C)c2c(=O)o[nH]c2n1 [Compound 14]	migrated together with the front of the mobile phase
Cn1oc(=O)c2cc3cc(Cl)ccc3nc21 [Compound 21]	33.40
